From paper PMC8829089, “The Pseudomonas aeruginosa homeostasis enzyme AlgL clears the periplasmic space of accumulated alginate during polymer biosynthesis” (The Journal of Biological Chemistry, 2022)

Molecular target: T1, AlgL (NHis6-AlgL^28–362) (Pseudomonas aeruginosa, UniProt Q06749)
T1 construct: residues 28-362, signal peptide removed, N-terminal His6 tag (pET28b), expressed in E. coli; one molecule in the asymmetric unit
Assay: X-ray crystal structure, […] Å
Format: binding
Details: cocrystallized with 8 mM mannuronate trisaccharide (ManA3); only one sugar monomer seen in density, subsite +1 of active site

T1 sequence (Q06749 28-362): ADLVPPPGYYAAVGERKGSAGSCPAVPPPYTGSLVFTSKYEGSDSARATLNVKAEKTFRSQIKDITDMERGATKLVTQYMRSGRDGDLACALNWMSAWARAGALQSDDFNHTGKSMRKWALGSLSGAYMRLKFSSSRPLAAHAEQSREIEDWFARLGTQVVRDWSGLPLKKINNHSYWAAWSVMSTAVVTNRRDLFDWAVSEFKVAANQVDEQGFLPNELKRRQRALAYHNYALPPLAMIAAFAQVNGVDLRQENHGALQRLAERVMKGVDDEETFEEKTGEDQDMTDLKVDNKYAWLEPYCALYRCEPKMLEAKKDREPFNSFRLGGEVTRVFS

SMILES: O=C(O)[C@H]1OC(O)[C@@H](O)[C@@H](O)[C@@H]1O (stereo partly shown) [ManA, mannuronate]
- X-ray crystal structure, 1.64 Å: we were only able to detect electron density for a sugar monomer
